Tested on: cucurbit leaf beetle (Aulacophora femoralis)
Assay: Test Example 10: sprayed cucumber leaves, cucurbit leaf beetle
Format: in vivo
Details: 50 ppm, spray 10 mL/seedling, 2nd instar larvae, after 5 days
Description: Next, Test examples are used to show efficacies of the Present compounds on controlling harmful arthropods. In the following Test examples, the tests were carried out at 25° C.
Each test compound is dissolved into a mixed solution (10 μL) of xylene, DMF, and a surfactant (at a volume ratio of xylene:DMF:surfactant=4:4:1) per 1 mg of the test compound, and water containing a spreader (0.03% by volume) is added thereto to prepare a diluted solution containing a prescribed concentration of each test compound.
Cucumber seedlings (on the developmental stage of the second to third true leaf) are planted in a plastic cup, and each of the diluted solutions is sprayed into the seedlings in the ratio of 10 mL/seedling. Thereafter, the second leaves are cut out and placed into a plastic cup, and 10 heads of the 2nd instar larvae of cucurbit leaf beetle (Aulacophora femoralis) are released into the cup, and the cup is covered with a lid. After 5 days, the number of the dead insects is counted, and the mortality of insects is calculated by the following equation. Mortality (%)=(Number of dead insects/10)×100

Molecule `CCS(=O)(=O)c1cc(C(F)(F)F)ccc1-c1ncc(OCC(F)(F)C(F)C(F)(F)F)cn1` (racemic) [compound 2] has a mortality of at least 80%.

Source: patent US10645929B2, “Pyrimidine compound” (Sumitomo Chemical Company, Limited, priority 2015, dated 2020)
